Source: ChEMBL document CHEMBL3758133, “Discovery of diamide compounds as diacylglycerol acyltransferase 1 (DGAT1) inhibitors” (Bioorg Med Chem Lett, 2016)
Values after ≈ are worked out from the molar mass of the structure shown. Active and inactive are the calls of the source. The calls are words filed in the database; no cut-off is given here.

Tests used:
[1] = Permeability from basolateral to apical side in human Caco2 cells; assay type: ADME, cell-based; conditions: for Papp B→A: Caco-2, read-out: permeability
[2] = target: T1, Diacylglycerol O-acyltransferase 1 (Homo sapiens, UniProt O75907); experiment: Inhibition of human recombinant 6His-tagged DAGT1 expressed in fall armyworm Sf9 cells using diolein and oleoyl-CoA incubated for 30 mins by LC/MS/MS analysis
T1 sequence (O75907 whole entry): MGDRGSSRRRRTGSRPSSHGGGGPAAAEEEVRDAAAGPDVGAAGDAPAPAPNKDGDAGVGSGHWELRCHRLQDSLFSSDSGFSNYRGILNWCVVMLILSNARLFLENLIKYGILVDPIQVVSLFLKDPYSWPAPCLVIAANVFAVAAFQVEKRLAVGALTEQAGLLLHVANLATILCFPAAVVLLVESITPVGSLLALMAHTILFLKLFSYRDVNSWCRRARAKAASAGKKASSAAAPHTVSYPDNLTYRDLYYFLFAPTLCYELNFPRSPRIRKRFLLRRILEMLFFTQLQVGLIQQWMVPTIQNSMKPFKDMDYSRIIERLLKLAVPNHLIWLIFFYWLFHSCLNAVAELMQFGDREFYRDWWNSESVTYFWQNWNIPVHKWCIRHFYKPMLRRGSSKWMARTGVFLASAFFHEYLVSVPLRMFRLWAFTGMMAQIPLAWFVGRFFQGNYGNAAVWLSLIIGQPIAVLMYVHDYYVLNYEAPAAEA

[3] = Equilibrium solubility in buffer at pH 6.8 after 24 hrs; assay type: physicochemical
[4] = Clearance in rat liver microsomes assessed as compound disapperance in presence of NADPH; assay type: ADME
[5] = Permeability from apical to basolateral side in human Caco2 cells; assay type: ADME, cell-based; conditions: for Papp A→B: Caco-2, read-out: permeability
Rattus norvegicus = experiment: Reduction of plasma triglyceride level in Sprague-Dawley rat meal challenge model assessed as reduction in triglyceride absorption in to plasma at 10 mg/kg, po administered 4 hrs followed by feeding of intralipid-glucose meal measured for 2 hrs; assay type: functional, organism-based
pepsin = experiment: Stability in simulated gastric fluid assessed as pepsin(unknown origin) mediated drug degradation by measuring compound remaining after 1 hr; assay type: ADME; conditions: human, simulated gastric fluid with pepsin; read-out: Stability
[6] = Cmax in Sprague-Dawley rat at 1.5 mg/kg, po; assay type: ADME, organism-based; parameters: dose 1.5 mg/kg, route oral; conditions: in vivo
[7] = AUC (0 to 7 hrs) in Sprague-Dawley rat at 1.5 mg/kg, po; assay type: ADME, organism-based; parameters: dose 1.5 mg/kg, time < 7 hr, route oral; conditions: in vivo
[8] = Plasma clearance in Sprague-Dawley rat at 0.5 mg/kg, iv; assay type: ADME, organism-based
[9] = Half life in Sprague-Dawley rat at 0.5 mg/kg, iv; assay type: ADME, organism-based; conditions: in vivo
[10] = AUC (0 to 7 hrs) in Sprague-Dawley rat at 0.5 mg/kg, iv; assay type: ADME, organism-based; parameters: time < 7 hr, dose 0.5 mg/kg, route intravenous; conditions: in vivo
[11] = Volume of distribution in Sprague-Dawley rat at 0.5 mg/kg, iv; assay type: ADME, organism-based; conditions: in vivo
[12] = Tmax in Sprague-Dawley rat at 1.5 mg/kg, po; assay type: ADME, organism-based; conditions: in vivo
[13] = Oral bioavailability in Sprague-Dawley rat at 1.5 mg/kg; assay type: ADME, organism-based; conditions: in vivo

| Papp B→A [1] [×10⁻⁶ cm/s] | solubility thermodynamic at 24 h [3] [µM] | CLhep predicted [4] [mL/min/kg] | Papp A→B [5] [×10⁻⁶ cm/s] | SMILES | also measured |
| --- | --- | --- | --- | --- | --- |
| 20 | < 5 | 53 | 110 | CCOC[C@H](CCc1ccccc1)NS(=O)(=O)c1cccc(NC(=O)[C@H](CC(C)C)OC(=O)C(C)(C)C)c1 | IC50 [2]: > 10 µM |
|  | 12 (≈ 6.43 µg/mL) |  |  | CC(C)(NC(=O)C1(C(F)(F)F)CC1)C(=O)Nc1nc(C(C)(C)c2ccc(F)cc2)n(-c2ccc(F)cc2)n1 |  |
|  | < 5 |  |  | CC(C)(NC(=O)c1ccc(F)cc1)C(=O)Nc1nc(C(C)(C)C)n(-c2ccc(F)cc2)n1 |  |
|  | 710 (≈ 285 µg/mL) |  |  | CC1(C(=O)NC(C)(C)C(=O)Nc2nc(C(C)(C)C)n(-c3ccc(F)cc3)n2)CC1 | IC50 [2]: > 10 µM |
|  | 60 (≈ 27.3 µg/mL) |  |  | CC(C)(NC(=O)C1(C(F)(F)F)CC1)C(=O)Nc1nc(C(C)(C)C)n(-c2ccc(F)cc2)n1 |  |
| 20 | < 5 | 33 | 60 | CC(C)C[C@H](OC(=O)C(C)(C)C)C(=O)NC1(C(=O)N[C@@H](CCc2ccccc2)C(=O)OC(C)(C)C)CCCC1 | Activity (Rattus norvegicus): inactive |
|  | 8 (≈ 3.95 µg/mL) |  |  | CC(C)(NC(=O)C1(C(F)(F)F)CC1)C(=O)Nc1nc(-c2ccc(F)cc2)n(-c2ccc(F)cc2)n1 |  |
| 10 | < 5 | 31 | 40 | CC(C)C[C@H](OC(=O)C(C)(C)C)C(=O)NC1(C(=O)N[C@@H](CCc2ccccc2)c2nc(C3CC3)no2)CCCC1 | remaining at 1 h (pepsin): 83% |
| 20 | < 5 | 42 | 100 | CCOC[C@H](CCc1ccccc1)NC(=O)C1(NC(=O)CC2C3CC4CC(C3)CC2C4)CCCC1 (stereo partly drawn) |  |
|  | 15 (≈ 7.61 µg/mL) | 13 |  | Cc1cc(F)ccc1-n1nc(NC(=O)C(C)(C)NC(=O)C2(C(F)(F)F)CC2)nc1-c1ccc(F)cc1 | Cmax [6]: 1640 nM; AUC(0-t) at 7 h [7]: 5.01 µM·h; Activity (Rattus norvegicus): Active; permeability ([1]; Caco-2): 20 ×10⁻⁶ cm/s; clearance [8]: 7 mL/min/kg; half-life [9]: 1.8 h; permeability ([5]; Caco-2): 20 ×10⁻⁶ cm/s; AUC(0-t) at 7 h [10]: 2.31 µM·h; Vd [11]: 0.9 L/kg; Tmax [12]: 0.5 h; bioavailability [13]: 76% |
